This note sets out measurements from patent publication US6340594B1, “Production of desiccation-tolerant gymnosperm embryos” (CellFor, Inc., priority 1991, dated 2002).

What all share (format): cell-based
The subject of test [1] is white spruce somatic embryos. Description: Lipid (TL, TAG) content and fatty acid composition of somatic embryos. Particulars: 7.5% PEG, 8 weeks; for Fatty acid composition of TAG (%) 18:2^b: FA col 7/9; for Fatty acid composition of TAG (%) ΣC-20, 22^c: FA col 9/9. The procedure:
Experiments were set up to observe the effects of different culture conditions on somatic embryo lipid biosynthesis. […] Sigma, St Louis, USA). […] Somatic embryos were maintained on these media for 4 weeks in the dark prior to lipid analysis. […] The lipid contents of immature somatic embryos from suspension culture were also determined. Investigations were conducted to observe the effects of different ABA concentrations, in the presence of PEG, on lipid biosynthesis. […] Matured somatic embryos were transferred on their filter-paper supports to unsealed petri dishes which were then placed within the 81% r.h. desiccator. Total secondary desiccation treatment time was 2 weeks. […] Results were compared to those of somatic embryos matured under the same conditions but not further desiccated. The whole white spruce seeds, isolated zygotic embryos, somatic embryos from the various treatments, and regenerated plantlets and zygotic seedlings were counted, blotted dry, and fresh weights determined. The samples were then placed in an oven at 80° C. for 24 h and dry weights recorded. Lipids were extracted from fresh tissues by the hexane/isopropane method of Hara and Radin (1978), after first placing the samples in boiling isopropane for 10 min. TAGs were separated from total lipid extracts by thin layer chromatography using […] 60 plates (Mandel Scientific Co., Toronto, Canada). […] TAGs were identified using authentic standards and scraped from the plates using a razor blade. Fatty acid methyl esters ([…] prepared from TAGs and total lipid extracts, as previously described (Pomeroy et al. 1991). […] Each lipid extract sample was divided into 2-3 replicates for analysis, and experiments were repeated three times. Results shown are means of one experiment.

Test [2] relates to white spruce somatic embryos. The test is described as follows: Molecular size threshold of solutes for promoting maturation. Particulars: 20 μM ABA; for Mature embryos per replicate (± SE): solute 7.5% added to 3% sucrose base, 9 weeks; for recovery of mature embryos: solute at 2.5 and 5% (w/v), 3% sucrose base. How it is done:
In order to determine the effective molecular weight and size range of solutes that promote the maturation of immature white spruce somatic embryos, they were matured in half-strength LP maturation medium containing a range of different solutes of differing molecular weight. Five replicates were prepared per treatment, and treatments were repeated twice. […] The treatment time was 9 weeks. […] The somatic embryos remained wet throughout the maturation treatment which led to poorly formed embryos at low frequency. […] For all treatments, only normal looking cotyledonary stage opaque white embryos were scored and used for lipid analyses. Levels of lipid triacylglycerols (TAGs) were analyzed as described later and results provided are means of two replicates.

For test [3], the system named is white spruce somatic embryos. The test is described as follows: Somatic embryo maturation with PEG-4000 (maturation frequency). The note with it: preliminary experiments. The procedure: Maturation of somatic embryos was carried out using methods modified from Attree et al. (1990). Suspension cultured somatic embryos were washed and resuspended (20% w/v) in half-strength PGR-free BM containing 3% sucrose, to remove the previous PGRs, then 0.75 ml aliquots were pipetted onto filter paper supports (Whatman no. 2) on the surface of maturation medium. The supports facilitated subsequent transfers to fresh media. To determine the mean number of somatic embryos plated, 10 μl samples of the 20% suspension were stained with acetocarmine (B.D.H.) and counted (repeated 15 times). The plated somatic embryos were maintained on the maturation medium for 4 weeks in the dark. To test the effect of increased osmoticum, the following concentrations of PEG-4000 (Fluka AG) were included in the maturation medium; 0, 2.5, 5.0, 7.5 and 10% (w/v) (25 replicates per treatment). Maturation frequencies per treatment were calculated as the percent mean number of somatic embryos that matured to normal-looking cotyledonary embryos. Maturation frequency results are shown in FIG. 1 (±confidence limits, P=0.05)
The application of PEG-4000 in the presence of 16 μM ABA for 28 d promoted the maturation of white spruce somatic embryos (FIG. 1). The mean number of immature somatic embryos plated per replicate was 560, and maturation results are based upon a total of 4087 mature embryos recovered. […]

[4] abbreviates: ABA 12 μM, desiccated (D) 2 weeks 81% r.h.
[5] abbreviates: ABA 16 μM, desiccated (D) 2 weeks 81% r.h.
Where [6] appears, read: ABA 24 μM, desiccated (D) 2 weeks 81% r.h.
The mark [7] stands for this setting: ABA 32 μM, desiccated (D) 2 weeks 81% r.h.

Regarding `CC1=CC(=O)CC(C)(C)C1(O)/C=C/C(C)=C\C(=O)O` (racemic) [ABA, abscisic acid], the “TAG % d wt” value in test [1] (setting [4]) came out at 26 % d wt; in test [1] (ABA 12 μM, hydrated (H)) it was 14 % d wt; in test [1] (setting [5]), 28 % d wt; in test [1] (ABA 16 μM, hydrated (H)), 17 % d wt; in test [1] (setting [6]), 30 % d wt; in test [1] (ABA 24 μM, hydrated (H)), 20 % d wt. Also, the “TAG % d wt” value in test [1] (setting [7]) is given as 20 % d wt; in test [1] (ABA 32 μM, hydrated (H)), 17 % d wt. Moreover, the “TAG μg (embryo)^−1” value in test [1] (setting [4]) is given as 186.6 μg (embryo)^−1; in test [1] (ABA 12 μM, hydrated (H)), 116 μg (embryo)^−1; in test [1] (setting [5]) it was 214 μg (embryo)^−1; in test [1] (ABA 16 μM, hydrated (H)), 143 μg (embryo)^−1; in test [1] (setting [6]), 186.2 μg (embryo)^−1; in test [1] (ABA 24 μM, hydrated (H)), 131 μg (embryo)^−1. The “TAG μg (embryo)^−1” value in test [1] (setting [7]) is 170 μg (embryo)^−1; in test [1] (ABA 32 μM, hydrated (H)) it was 130 μg (embryo)^−1. Further, the TAG/TL % in test [1] (setting [4]) amounted to 85%; in test [1] (ABA 12 μM, hydrated (H)), 79%; in test [1] (setting [5]) it was 82%; in test [1] (ABA 16 μM, hydrated (H)), 80%; in test [1] (setting [6]) it was 80%; in test [1] (ABA 24 μM, hydrated (H)), 77%. The TAG/TL % in test [1] (setting [7]) stood at 64%; in test [1] (ABA 32 μM, hydrated (H)), 67%. The “TL % d wt” value in test [1] (setting [4]) stood at 31 % d wt; in test [1] (ABA 12 μM, hydrated (H)), 18 % d wt; in test [1] (setting [5]), 35 % d wt; in test [1] (ABA 16 μM, hydrated (H)), 22 % d wt; in test [1] (setting [6]), 37 % d wt; in test [1] (ABA 24 μM, hydrated (H)), 26 % d wt. Also, the “TL % d wt” value in test [1] (setting [7]) is reported as 31 % d wt; in test [1] (ABA 32 μM, hydrated (H)), 26 % d wt. Moreover, the “TL μg (embryo)^−1” value is 220 μg (embryo)^−1 in test [1] (setting [4]); 146 μg (embryo)^−1 in test [1] (ABA 12 μM, hydrated (H)); 260 μg (embryo)^−1 in test [1] (setting [5]); 179 μg (embryo)^−1 in test [1] (ABA 16 μM, hydrated (H)); 232.5 μg (embryo)^−1 in test [1] (setting [6]); 170 μg (embryo)^−1 in test [1] (ABA 24 μM, hydrated (H)). Also, the “TL μg (embryo)^−1” value in test [1] (setting [7]) was 264 μg (embryo)^−1; in test [1] (ABA 32 μM, hydrated (H)), 193 μg (embryo)^−1. Moreover, the “Fatty acid composition of TAG (%) 18:2^b” value in test [1] (ABA 12 μM, D (81% r.h.)) worked out at 15.4%; in test [1] (ABA 12 μM, H), 13.2%; in test [1] (ABA 16 μM, D (81% r.h.)) it was 15.4%; in test [1] (ABA 16 μM, H), 13.5%; in test [1] (ABA 24 μM, D (81% r.h.)) it was 15%; in test [1] (ABA 24 μM, H), 14.7%. Moreover, the “Fatty acid composition of TAG (%) 18:2^b” value was 14.9% in test [1] (ABA 32 μM, D (81% r.h.)) and 14.6% in test [1] (ABA 32 μM, H). Moreover, the “Fatty acid composition of TAG (%) ΣC-20, 22^c” value in test [1] (ABA 12 μM, D (81% r.h.)) is on record as 1.4%; in test [1] (ABA 12 μM, H), 1.4%; in test [1] (ABA 16 μM, D (81% r.h.)), 1.5%; in test [1] (ABA 16 μM, H), 1%; in test [1] (ABA 24 μM, D (81% r.h.)) it was 1.5%; in test [1] (ABA 24 μM, H) it was 1.2%. For the same compound, the “Fatty acid composition of TAG (%) ΣC-20, 22^c” value is 2.5% in test [1] (ABA 32 μM, D (81% r.h.)) and 1.6% in test [1] (ABA 32 μM, H).

As to `OC[C@@H](O)[C@@H](O)[C@H](O)[C@H](O)CO` [Mannitol, mannitol], in test [2], the “Mature embryos per replicate (± SE)” value is given as 0 and the “recovery of mature embryos” value is listed as “did not result in recovery of any mature embryos”.

For the compound `OC[C@H]1O[C@@](CO)(O[C@H]2O[C@H](CO)[C@@H](O)[C@H](O)[C@H]2O)[C@@H](O)[C@@H]1O` [Sucrose, sucrose], the “maturation frequencies, visual comparison” value in test [3] (6% sucrose) is given as “lower maturation frequencies”. In addition, the “growth, visual comparison” value in test [3] (9% sucrose) is listed as “no growth”. Further, in test [2], the “Mature embryos per replicate (± SE)” value is given as 0 and the “recovery of mature embryos” value is on record as “did not result in recovery of any mature embryos”.
